Assay results as given in patent publication US20200017496A1 (priority 2017, published 2020).
Read-outs that look alike come from different tables or passages of the source.

Tests used:
Test in all cases: MIC of compounds alone and combined with antibacterials, broth microdilution (CLSI)
Assay type in all cases: cell-based
[1] = test system: Morganella morganii (MMO) isolates; details: Morganella morganii, read-out: MIC
In short: (§1)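 First, log-phase suspensions are brought to a final 5·10^5 CFU/mL in cation-adjusted Mueller-Hinton broth. Then plates with compound, antibacterial, or both incubate 16-20 h at 35° C under ambient air. Finally, visual inspection gives the lowest growth-preventing concentration for each agent.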

[2] = test system: Providencia rettgeri (PRE) isolates
In short: as §1

[3] = test system: Providencia stuartii (PST) isolates; details: for MIC: Providencia stuartii, read-out: MIC
In short: as §1

[4] = test system: Serratia marcescens (SMA) isolates; details: for MIC: Serratia marcescens, read-out: MIC
In short: as §1

C=CC1=C(C(=O)O)N2C(=O)[C@@H](NC(=O)/C(=N\OCC(=O)O)c3csc(N)n3)[C@H]2SC1 [FIX, Cefixime]
512 µg/mL: MIC ([3]; PST UFR235, alone) | MIC ([3]; strain PST UFR235 (VEB-1), ATB alone) | MIC ([4]; SMA UFR143, alone) | MIC ([4]; strain SMA UFR143 (CTX-M-15, OXA-1, OXA-48), ATB alone)
4 µg/mL: MIC ([1]; strain MMO UFR244 (DHA-1), ATB alone) | MIC ([3]; strain PST UFR95 (TEM-24), ATB alone) | MIC ATB in combination ([4]; SMA UFR136, AF1 @ 4 μg/mL)
<=0.25 μg/mL: MIC ATB in combination ([3]; PST UFR94, AF1 @ 4 μg/mL) | MIC ATB in combination ([3]; PST UFR94, AF1 @ 8 μg/mL) | MIC ATB in combination ([3]; PST UFR95, AF1 @ 4 μg/mL) | MIC ATB in combination ([3]; PST UFR95, AF1 @ 8 μg/mL) | MIC ATB in combination ([4]; SMA UFR30, AF1 @ 4 μg/mL) | MIC ATB in combination ([4]; SMA UFR30, AF1 @ 8 μg/mL) | MIC ATB in combination ([4]; SMA UFR137, AF1 @ 4 μg/mL) | MIC ATB in combination ([4]; SMA UFR137, AF1 @ 8 μg/mL) | MIC ATB in combination ([4]; SMA UFR138, AF1 @ 4 μg/mL) | MIC ATB in combination ([4]; SMA UFR138, AF1 @ 8 μg/mL) | MIC ATB in combination ([4]; SMA UFR139, AF1 @ 8 μg/mL)
64 µg/mL: MIC ([1]; strain MMO UFR242 (TEM-52), CLA @ 4 μg/ml+ ATB) | MIC ([1]; strain MMO UFR245 (DHA-1), CLA @ 4 μg/ml+ ATB) | MIC ([1]; strain MMO UFR246 (DHA-1), CLA @ 4 μg/ml+ ATB) | MIC ([4]; strain SMA UFR135 (TEM-1, KPC-2), ATB alone) | MIC ([4]; strain SMA UFR143 (CTX-M-15, OXA-1, OXA-48), CLA @ 4 μg/ml+ ATB)
1020 µg/mL: MIC ([1]; strain MMO UFR242 (TEM-52), ATB alone)
0.063 µg/mL: MIC ATB in combination ([3]; PST UFR235, AF1 @ 8 μg/mL)
32 µg/mL: MIC ([1]; strain MMO UFR243 (DHA-1), CLA @ 4 μg/ml+ ATB) | MIC ([1]; strain MMO UFR245 (DHA-1), ATB alone) | MIC ([1]; strain MMO UFR246 (DHA-1), ATB alone) | MIC ([1]; strain MMO UFR247 (DHA-1), CLA @ 4 μg/ml+ ATB) | MIC ([2]; ATB combined with CLA @ 4 μg/ml, strain PRE UFR236 (TEM-1, OXA-48)) | MIC ([2]; Providencia rettgeri, ATB alone, strain PRE UFR236 (TEM-1, OXA-48), read-out: MIC) | MIC ([4]; strain SMA UFR134 (TEM-1, BES-1), CLA @ 4 μg/ml+ ATB) | MIC ([4]; strain SMA UFR135 (TEM-1, KPC-2), CLA @ 4 μg/ml+ ATB)
0.25 µg/mL: MIC ATB in combination ([4]; SMA UFR143, AF1 @ 4 μg/mL) | MIC ATB in combination ([4]; SMA UFR143, AF1 @ 8 μg/mL)
16 µg/mL: MIC ([1]; strain MMO UFR247 (DHA-1), ATB alone)
2 µg/mL: MIC ([3]; strain PST UFR94 (CTX-M-14), CLA @ 4 μg/ml+ ATB) | MIC ATB in combination ([4]; SMA UFR135, AF1 @ 4 μg/mL) | MIC ATB in combination ([4]; SMA UFR135, AF1 @ 8 μg/mL) | MIC ATB in combination ([4]; SMA UFR136, AF1 @ 8 μg/mL) | MIC ATB in combination ([4]; SMA UFR142, AF1 @ 4 μg/mL) | MIC ([4]; ATB combined with CLA @ 4 μg/ml, strain SMA UFR238 (OXA-48)) | MIC ([4]; strain SMA UFR139 (SME-2), CLA @ 4 μg/ml+ ATB) | MIC ([4]; strain SMA UFR141 (OXA-48), ATB alone) | MIC ([4]; strain SMA UFR142 (OXA-48), ATB alone) | MIC ([4]; strain SMA UFR142 (OXA-48), CLA @ 4 μg/ml+ ATB) | MIC ([4]; strain SMA UFR239 (ESAC), ATB alone) | MIC ([4]; strain SMA UFR239 (ESAC), CLA @ 4 μg/ml+ ATB)
>128 µg/mL: MIC ATB in combination ([2]; PRE UFR99, AF1 @ 4 μg/mL) | MIC ATB in combination ([2]; PRE UFR99, AF1 @ 8 μg/mL)
0.125 µg/mL: MIC ATB in combination ([3]; PST UFR235, AF1 @ 4 μg/mL)
1 µg/mL: MIC ATB in combination ([2]; strain PRE UFR236, antibacterial combined with AF1 @ 4 μg/mL) | MIC ATB in combination ([4]; SMA UFR134, AF1 @ 4 μg/mL) | MIC ATB in combination ([4]; SMA UFR134, AF1 @ 8 μg/mL) | MIC ATB in combination ([4]; SMA UFR142, AF1 @ 8 μg/mL) | MIC ([4]; ATB alone, strain SMA UFR238 (OXA-48)) | MIC ([4]; strain SMA UFR30 (OXA-405), ATB alone) | MIC ([4]; strain SMA UFR30 (OXA-405), CLA @ 4 μg/ml+ ATB) | MIC ([4]; strain SMA UFR137 (SME-1), CLA @ 4 μg/ml+ ATB) | MIC ([4]; strain SMA UFR139 (SME-2), ATB alone) | MIC ATB in combination ([4]; strain SMA UFR238, antibacterial combined with AF1 @ 4 μg/mL)
8 µg/mL: MIC ([1]; strain MMO UFR243 (DHA-1), ATB alone) | MIC ([1]; strain MMO UFR244 (DHA-1), CLA @ 4 μg/ml+ ATB) | MIC ([3]; strain PST UFR95 (TEM-24), CLA @ 4 μg/ml+ ATB) | MIC ([3]; strain PST UFR235 (VEB-1), CLA @ 4 μg/ml+ ATB)
0.5 µg/mL: MIC ATB in combination ([2]; strain PRE UFR236, antibacterial combined with AF1 @ 8 μg/mL) | MIC ([3]; strain PST UFR94 (CTX-M-14), ATB alone) | MIC ATB in combination ([4]; SMA UFR139, AF1 @ 4 μg/mL) | MIC ATB in combination ([4]; SMA UFR141, AF1 @ 4 μg/mL) | MIC ATB in combination ([4]; SMA UFR141, AF1 @ 8 μg/mL) | MIC ATB in combination ([4]; SMA UFR239, AF1 @ 4 μg/mL) | MIC ATB in combination ([4]; SMA UFR239, AF1 @ 8 μg/mL) | MIC ([4]; strain SMA UFR137 (SME-1), ATB alone) | MIC ([4]; strain SMA UFR138 (SME-1), ATB alone) | MIC ([4]; strain SMA UFR138 (SME-1), CLA @ 4 μg/ml+ ATB) | MIC ([4]; strain SMA UFR141 (OXA-48), CLA @ 4 μg/ml+ ATB) | MIC ATB in combination ([4]; strain SMA UFR238, antibacterial combined with AF1 @ 8 μg/mL)
> 128 µg/mL: MIC ([2]; Providencia rettgeri, strain PRE UFR99 (OXA-1, OXA-181), ATB alone) | MIC ([2]; Providencia rettgeri, strain PRE UFR99 (OXA-1, OXA-181), CLA @ 4 μg/ml+ ATB) | MIC ([4]; strain SMA UFR134 (TEM-1, BES-1), ATB alone) | MIC ([4]; strain SMA UFR136 (TEM-1, SHV-12, KPC-2), ATB alone) | MIC ([4]; strain SMA UFR136 (TEM-1, SHV-12, KPC-2), CLA @ 4 μg/ml+ ATB)
